Source: ChEMBL document CHEMBL5365466, “Discovery of Triazolyl Derivatives of Cucurbitacin B Targeting IGF2BP1 against Non-Small Cell Lung Cancer” (J Med Chem, 2023)

Experiments:
HCT-116 [1] = assay: Antiproliferative activity against human HCT-116 cells assessed as cell growth inhibition at 1 uM incubated for 72 hrs by SRB assay; type: functional
[2] = Antiproliferative activity against human L02 cells assessed as cell growth inhibition at 1 uM incubated for 72 hrs by SRB assay; type: toxicity, cell-based
[3] = Antiproliferative activity against human L02 cells assessed as cell growth inhibition at 0.1 uM incubated for 72 hrs by SRB assay; type: toxicity, cell-based
HCT-116 [4] = assay: Antiproliferative activity against human HCT-116 cells assessed as cell growth inhibition at 0.1 uM incubated for 72 hrs by SRB assay; type: functional
[5] = Selectivity index, ratio of IC50 for antiproliferative activity against human L02 cells to IC50 for antiproliferative activity against human HCT-116 cells; type: toxicity, cell-based; details: L02 cells versus HCT-116 cells, read-out: Ratio IC50
[6] = Antiproliferative activity against human L02 cells assessed as cell growth inhibition incubated for 72 hrs by SRB assay; type: toxicity, cell-based
HCT-116 [7] = assay: Antiproliferative activity against human HCT-116 cells assessed as cell growth inhibition incubated for 72 hrs by SRB assay; type: functional, cell-based; details: HCT-116, 72 h

Structure (SMILES) | inhibition at 1 µM (HCT-116 [1]) | inhibition at 72 h, 1 µM [2] | inhibition at 72 h, 0.1 µM [3] | inhibition at 0.1 µM (HCT-116 [4]) | selectivity ratio [5] | IC50 at 72 h [6] | IC50 (HCT-116 [7])
CC(=O)OC(C)(C)/C=C/C(=O)[C@](C)(O)[C@H]1[C@H](O)C[C@@]2(C)[C@@H]3CC=C4[C@@H](C[C@H](OC(=O)c5cn(-c6ccc(Br)cc6)nn5)C(=O)C4(C)C)[C@]3(C)C(=O)C[C@]12C | 93% | 73.6% | 0.01% | 15.6% |  |  | 
CC(=O)OC(C)(C)/C=C/C(=O)[C@](C)(O)[C@H]1[C@H](O)C[C@@]2(C)[C@@H]3CC=C4[C@@H](C[C@H](OC(=O)c5cccnc5)C(=O)C4(C)C)[C@]3(C)C(=O)C[C@]12C | 82.4% | 68.3% | 10.1% | 19.9% |  |  | 
CC(=O)OC(C)(C)/C=C/C(=O)[C@](C)(O)[C@H]1[C@H](O)C[C@@]2(C)[C@@H]3CC=C4[C@@H](C[C@H](OC(=O)Cn5ncn(-c6ccccc6)c5=O)C(=O)C4(C)C)[C@]3(C)C(=O)C[C@]12C | 82.2% | 71.6% | 59.6% | 67.9% | 1.57 | 80 nM | 51 nM
COc1ccc(-n2cc(C(=O)O[C@H]3C[C@@H]4C(=CC[C@@H]5[C@@]4(C)C(=O)C[C@]4(C)[C@@H]([C@@](C)(O)C(=O)/C=C/C(C)(C)OC(C)=O)[C@H](O)C[C@@]54C)C(C)(C)C3=O)nn2)cc1 | 92.1% | 73.1% | 12.6% | 49.4% |  |  | 
CC(=O)OC(C)(C)/C=C/C(=O)[C@](C)(O)[C@H]1[C@H](O)C[C@@]2(C)[C@@H]3CC=C4[C@@H](C[C@H](OC(=O)c5ccco5)C(=O)C4(C)C)[C@]3(C)C(=O)C[C@]12C | 83.5% | 69.2% | 20% | 22.1% |  |  | 
CC(=O)OC(C)(C)/C=C/C(=O)[C@](C)(O)[C@H]1[C@H](OC(=O)/C=C/c2ccc(F)cc2)C[C@@]2(C)[C@@H]3CC=C4[C@@H](C[C@H](OC(=O)/C=C/c5ccc(F)cc5)C(=O)C4(C)C)[C@]3(C)C(=O)C[C@]12C | 7.98% | 6.72% | -13.1% | 2.07% |  |  | 
CC(=O)OC(C)(C)/C=C/C(=O)[C@](C)(O)[C@H]1[C@H](O)C[C@@]2(C)[C@@H]3CC=C4[C@@H](C[C@H](OC(=O)Cn5ncn(-c6ccc(C)cc6)c5=O)C(=O)C4(C)C)[C@]3(C)C(=O)C[C@]12C | 82.1% | 68.2% | 36.5% | 72.5% | 0.33 | 40 nM | 121 nM
CC(=O)OC(C)(C)/C=C/C(=O)[C@](C)(O)[C@H]1[C@H](OC(=O)/C=C/c2ccc(C)cc2)C[C@@]2(C)[C@@H]3CC=C4[C@@H](C[C@H](OC(=O)/C=C/c5ccc(C)cc5)C(=O)C4(C)C)[C@]3(C)C(=O)C[C@]12C | 4.21% | 8.01% | -13.3% | 0.65% |  |  | 
CC(=O)OC(C)(C)/C=C/C(=O)[C@](C)(O)[C@H]1[C@H](O)C[C@@]2(C)[C@@H]3CC=C4[C@@H](C[C@H](OC(=O)c5cn(-c6ccc(Cl)cc6)nn5)C(=O)C4(C)C)[C@]3(C)C(=O)C[C@]12C | 94% | 72.6% | 12.5% | 35.1% |  |  | 
COc1ccc(/C=C/C(=O)O[C@@H]2C[C@@]3(C)[C@@H]4CC=C5[C@@H](C[C@H](O)C(=O)C5(C)C)[C@]4(C)C(=O)C[C@]3(C)[C@H]2[C@@](C)(O)C(=O)/C=C/C(C)(C)OC(C)=O)cc1 | 67.3% | 47.4% | -3.17% | 0.47% |  |  | 
COc1ccc(/C=C/C(=O)O[C@H]2C[C@@H]3C(=CC[C@@H]4[C@@]3(C)C(=O)C[C@]3(C)[C@@H]([C@@](C)(O)C(=O)/C=C/C(C)(C)OC(C)=O)[C@H](O)C[C@@]43C)C(C)(C)C2=O)cc1 | 79.4% | 67.3% | -9.08% | 5.28% |  |  | 
CC(=O)OC(C)(C)/C=C/C(=O)[C@](C)(O)[C@H]1[C@H](O)C[C@@]2(C)[C@@H]3CC=C4[C@@H](C[C@H](OC(=O)Cn5ncn(-c6ccc(Cl)cc6)c5=O)C(=O)C4(C)C)[C@]3(C)C(=O)C[C@]12C | 84.4% | 70.9% | 61.3% | 69% | 0.49 | 31 nM | 63 nM
CC(=O)OC(C)(C)/C=C/C(=O)[C@](C)(O)[C@H]1[C@H](OC(=O)/C=C/c2ccc(C)cc2)C[C@@]2(C)[C@@H]3CC=C4[C@@H](C[C@H](O)C(=O)C4(C)C)[C@]3(C)C(=O)C[C@]12C | 4.99% | 7.53% | 3.35% | 5.73% |  |  | 
CC(=O)OC(C)(C)/C=C/C(=O)[C@](C)(O)[C@H]1[C@H](O)C[C@@]2(C)[C@@H]3CC=C4[C@@H](C[C@H](OC(=O)Cn5ncn(-c6ccc(Br)cc6)c5=O)C(=O)C4(C)C)[C@]3(C)C(=O)C[C@]12C | 84.2% | 67.5% | 54.1% | 70.8% | 0.41 | 31 nM | 76 nM
COc1ccc(/C=C/C(=O)O[C@H]2C[C@@H]3C(=CC[C@@H]4[C@@]3(C)C(=O)C[C@]3(C)[C@@H]([C@@](C)(O)C(=O)/C=C/C(C)(C)OC(C)=O)[C@H](OC(=O)/C=C/c5ccc(OC)cc5)C[C@@]43C)C(C)(C)C2=O)cc1 | 2.18% | 0.89% | -2.33% | 0.38% |  |  | 
CC(=O)OC(C)(C)/C=C/C(=O)[C@](C)(O)[C@H]1[C@H](OC(=O)/C=C/c2ccccc2)C[C@@]2(C)[C@@H]3CC=C4[C@@H](C[C@H](OC(=O)/C=C/c5ccccc5)C(=O)C4(C)C)[C@]3(C)C(=O)C[C@]12C | 9.26% | 11.7% | 0.97% | 3.56% |  |  | 
COc1ccc(-n2cnn(CC(=O)O[C@H]3C[C@@H]4C(=CC[C@@H]5[C@@]4(C)C(=O)C[C@]4(C)[C@@H]([C@@](C)(O)C(=O)/C=C/C(C)(C)OC(C)=O)[C@H](O)C[C@@]54C)C(C)(C)C3=O)c2=O)cc1 | 83.3% | 70.8% | 31.4% | 64.3% | 0.75 | 33 nM | 44 nM
CC(=O)OC(C)(C)/C=C/C(=O)[C@](C)(O)[C@H]1[C@H](O)C[C@@]2(C)[C@@H]3CC=C4[C@@H](C[C@H](OC(=O)c5ccccn5)C(=O)C4(C)C)[C@]3(C)C(=O)C[C@]12C | 83.1% | 71.2% | 44.8% | 67.9% | 0.43 | 34 nM | 79 nM
CC(=O)OC(C)(C)/C=C/C(=O)[C@](C)(O)[C@H]1[C@H](O)C[C@@]2(C)[C@@H]3CC=C4[C@@H](C[C@H](OC(=O)/C=C/c5ccccc5)C(=O)C4(C)C)[C@]3(C)C(=O)C[C@]12C | 86.8% | 72.7% | 1.72% | 1.46% |  |  | 
CC(=O)OC(C)(C)/C=C/C(=O)[C@](C)(O)[C@H]1[C@H](OC(=O)/C=C/c2ccc(F)cc2)C[C@@]2(C)[C@@H]3CC=C4[C@@H](C[C@H](O)C(=O)C4(C)C)[C@]3(C)C(=O)C[C@]12C | 1.19% | 67% | 7.68% | 5.23% |  |  | 
CC(=O)OC(C)(C)/C=C/C(=O)[C@](C)(O)[C@H]1[C@H](OC(=O)/C=C/c2ccccc2)C[C@@]2(C)[C@@H]3CC=C4[C@@H](C[C@H](O)C(=O)C4(C)C)[C@]3(C)C(=O)C[C@]12C | 16.5% | 13.2% | 1.86% | 2.73% |  |  | 
CC(=O)OC(C)(C)/C=C/C(=O)[C@](C)(O)[C@H]1[C@H](O)C[C@@]2(C)[C@@H]3CC=C4[C@@H](C[C@H](OC(=O)/C=C/c5ccc(C)cc5)C(=O)C4(C)C)[C@]3(C)C(=O)C[C@]12C | 55.6% | 44.1% | 1.88% | 0.24% |  |  | 
CC(=O)OC(C)(C)/C=C/C(=O)[C@](C)(O)[C@H]1[C@H](O)C[C@@]2(C)[C@@H]3CC=C4[C@@H](C[C@H](OC(=O)c5cn(-c6ccc(C)cc6)nn5)C(=O)C4(C)C)[C@]3(C)C(=O)C[C@]12C | 88.1% | 72.4% | 3.68% | 27.9% |  |  | 
CC(=O)OC(C)(C)/C=C/C(=O)[C@](C)(O)[C@H]1[C@H](O)C[C@@]2(C)[C@@H]3CC=C4[C@@H](C[C@H](OC(=O)/C=C/c5ccc(F)cc5)C(=O)C4(C)C)[C@]3(C)C(=O)C[C@]12C | 87.6% | 1.62% | -3.78% | 1.53% |  |  | 
CC(=O)OC(C)(C)/C=C/C(=O)[C@](C)(O)[C@H]1[C@H](O)C[C@@]2(C)[C@@H]3CC=C4[C@@H](C[C@H](OC(=O)c5cccs5)C(=O)C4(C)C)[C@]3(C)C(=O)C[C@]12C | 95.2% | 75.2% | 4.77% | 3.99% |  |  | 
